These results are taken from patent US20220313670A1, “Methods Of Treating Fabry Disease In Patients Having Renal Impairment” (Amicus Therapeutics, Inc., priority 2019, published 2022).

The nature of data set [1]: Earlier single and multiple ascending dose plasma and urine pharmacokinetic studies in healthy volunteers and Fabry patients. The conditions noted are these: human, in vivo.
A short description of data set [2]: Highest recorded migalastat exposure in a Fabry patient after a single dose of 450 mg. The conditions noted are these: single dose of 450 mg. It is filed as in vivo, human. The text has this:
FIGS. 2A-D show the mean simulation plots for each regimen.

A short description of data set [3]: Multiple dose simulations (2-compartment model, WinNonlin) on the renal impairment subjects of Example 1. More on the design: species or system human. The conditions noted are these: ratio to AUCPPK. An excerpt:
This example provides computer simulations of dosing the renal impairment subjects of Example 1. The key assumption was exposure characterized in non-Fabry subjects with renal impairment is the same as in Fabry patients with renal impairment. The software program was WinNonlin version 5.2 or higher. […] Steady state was assumed by 7th dose. […] QOD (every other day or 48 hrs), Q3D (every 3rd day or 72 hrs), Q4D (every 4th day or 96 hrs), and Q7D (every 7th day/once a week or 168 hrs). A 2-compartment model was used to estimate volume of distribution (Vd) and elimination rate constants from single dose data. These estimates were inputted into each molecular dose simulation regimen.

Where “and” joins values, the source holds several entries; their conditions need not be identical. Equal values may be shown once.

With `OC[C@H]1NC[C@H](O)[C@@H](O)[C@H]1O` [migalastat, (2R,3S,4R,55)-2-(hydroxymethyl) piperdine-3,4,5-triol], the route of excretion entry in data set [1] was “primarily excreted unchanged in urine”. The “highest exposure of migalastat in a Fabry patient” value in data set [2] turned out to be 53.035 µg·h/mL. For the same compound, the RacPPK is 4.96 in data set [3] (Geometric Mean of the 11 subjects); 3.75 and 4.36 and 2.06 in data set [3] (individual subjects, Moderate (≥30-≤35) group); 8.81 and 5.59 and 5.02 and 6.74 and 6.23 and 6.91 and 3.62 and 5.17 in data set [3] (individual subjects, Severe (<30) group).
